# Experimental data from PubChem BioAssay AID256 (DTP/NCI, 2004).
# Several values for one entry are separate records, joined by “and”; a condition that tells them apart may be missing. Equal entries are not always repeated. Inconclusive results and toxic doses are left out.
# Test system: CD2F1 mice, L1210 leukemia ip, survival T/C
# Assay: NCI In Vivo Anticancer Drug Screen. Data for tumor model L1210 Leukemia (intraperitoneal) in CD2F1 (CDF1) mice
# Details: endpoint: mean survival time, higher = longer survival
# How it was run: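 Mice carrying a transplanted tumor received test compound or vehicle alone. The value is the measurement in the treated group divided by that in the vehicle-treated control group.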
# [1] = dose: 100.0 mg/kg/injection, schedule: Q01DX009 (ip), vehicle: saline
# [2] = dose: 200.0 mg/kg/injection, schedule: Q01DX009 (ip), vehicle: saline
smiles,measurement,setting,value
Nc1nc(=O)n(C2OC(CO)C(O)C2O)cc1F (centres undefined),T/C,"dose: 0.25 mg/kg/injection, schedule: Q01DX009 (ip), vehicle: saline",121 % of control
same,T/C,"dose: 0.5 mg/kg/injection, schedule: Q01DX009 (sc), vehicle: saline",97 % of control
same,T/C,"dose: 1.0 mg/kg/injection, schedule: Q03HX024 (ip), vehicle: saline",346 % of control
same,T/C,"dose: 2.0 mg/kg/injection, schedule: Q01DX009 (sc), vehicle: saline",121 % of control
same,T/C,"dose: 4.0 mg/kg/injection, schedule: Q01DX009 (ip), vehicle: saline",157 % of control
same,T/C,"dose: 4.0 mg/kg/injection, schedule: Q08DX002 (ip), vehicle: saline",106 % of control
same,T/C,"dose: 8.0 mg/kg/injection, schedule: Q01DX009 (sc), vehicle: saline",152 % of control
same,T/C,"dose: 8.0 mg/kg/injection, schedule: Q03HX024 (ip), vehicle: saline",540 % of control
same,T/C,"dose: 12.5 mg/kg/injection, schedule: Q01DX009 (ip), vehicle: saline",218 % of control and 227 % of control
same,T/C,"dose: 16.0 mg/kg/injection, schedule: Q01DX009 (ip), vehicle: saline",186 % of control and 194 % of control
same,T/C,"dose: 16.0 mg/kg/injection, schedule: Q03HX016 (ip), vehicle: saline",248 % of control
same,T/C,"dose: 16.0 mg/kg/injection, schedule: Q03HX024 (oral), vehicle: saline",327 % of control
same,T/C,"dose: 16.0 mg/kg/injection, schedule: Q08DX002 (ip), vehicle: saline",114 % of control
same,T/C,"dose: 18.8 mg/kg/injection, schedule: Q01DX008 (ip), vehicle: saline",189 % of control
same,T/C,"dose: 18.8 mg/kg/injection, schedule: Q01DX008 (oral), vehicle: saline",167 % of control
same,T/C,"dose: 20.0 mg/kg/injection, schedule: Q01DX007 (ip), vehicle: saline",195 % of control
same,T/C,"dose: 20.0 mg/kg/injection, schedule: Q01DX009 (ip), vehicle: saline",187 % of control
same,T/C,"dose: 20.0 mg/kg/injection, schedule: Q04DX003 (ip), vehicle: saline",152 % of control
same,T/C,"dose: 25.0 mg/kg/injection, schedule: Q01DX009 (ip), vehicle: saline",215 % of control and 233 % of control
same,T/C,"dose: 32.0 mg/kg/injection, schedule: Q01DX009 (ip), vehicle: saline",244 % of control
same,T/C,"dose: 32.0 mg/kg/injection, schedule: Q01DX009 (oral), vehicle: saline",163 % of control
same,T/C,"dose: 32.0 mg/kg/injection, schedule: Q01DX009 (sc), vehicle: saline",196 % of control
same,T/C,"dose: 32.0 mg/kg/injection, schedule: Q03HX008 (ip), vehicle: saline",120 % of control
same,T/C,"dose: 37.5 mg/kg/injection, schedule: Q01DX008 (ip), vehicle: saline",169 % of control
same,T/C,"dose: 37.5 mg/kg/injection, schedule: Q01DX008 (oral), vehicle: saline",175 % of control
same,T/C,"dose: 40.0 mg/kg/injection, schedule: Q01DX007 (ip), vehicle: saline",204 % of control
same,T/C,"dose: 40.0 mg/kg/injection, schedule: Q01DX009 (ip), vehicle: saline",229 % of control
same,T/C,"dose: 40.0 mg/kg/injection, schedule: Q04DX003 (ip), vehicle: saline",152 % of control
same,T/C,"dose: 50.0 mg/kg/injection, schedule: Q01DX009 (ip), vehicle: saline",153 % of control and 166 % of control
same,T/C,"dose: 64.0 mg/kg/injection, schedule: Q01DX009 (ip), vehicle: saline",221 % of control
same,T/C,"dose: 64.0 mg/kg/injection, schedule: Q01DX009 (oral), vehicle: saline",176 % of control
same,T/C,"dose: 64.0 mg/kg/injection, schedule: Q03HX016 (ip), vehicle: saline",377 % of control
same,T/C,"dose: 64.0 mg/kg/injection, schedule: Q03HX024 (oral), vehicle: saline",90 % of control
same,T/C,"dose: 64.0 mg/kg/injection, schedule: Q08DX002 (ip), vehicle: saline",116 % of control
same,T/C,"dose: 75.0 mg/kg/injection, schedule: Q01DX008 (oral), vehicle: saline",202 % of control
same,T/C,"dose: 75.0 mg/kg/injection, schedule: Q04DX003 (ip), vehicle: saline",182 % of control
same,T/C,"dose: 80.0 mg/kg/injection, schedule: Q01DX007 (ip), vehicle: saline",161 % of control
same,T/C,"dose: 80.0 mg/kg/injection, schedule: Q01DX009 (ip), vehicle: saline",117 % of control
same,T/C,"dose: 80.0 mg/kg/injection, schedule: Q04DX003 (ip), vehicle: saline",157 % of control
same,T/C,[1],113 % of control and 115 % of control
same,T/C,"dose: 128.0 mg/kg/injection, schedule: Q01DX001 (ip), vehicle: saline",120 % of control
same,T/C,"dose: 128.0 mg/kg/injection, schedule: Q01DX001 (sc), vehicle: saline",123 % of control
same,T/C,"dose: 128.0 mg/kg/injection, schedule: Q01DX009 (ip), vehicle: saline",114 % of control
same,T/C,"dose: 128.0 mg/kg/injection, schedule: Q01DX009 (sc), vehicle: saline",88 % of control
same,T/C,"dose: 128.0 mg/kg/injection, schedule: Q04DX003 (ip), vehicle: saline",163 % of control
same,T/C,"dose: 128.0 mg/kg/injection, schedule: Q04DX003 (oral), vehicle: saline",158 % of control
same,T/C,"dose: 150.0 mg/kg/injection, schedule: Q01DX001 (ip), vehicle: saline",110 % of control
same,T/C,"dose: 150.0 mg/kg/injection, schedule: Q01DX001 (oral), vehicle: saline",115 % of control
same,T/C,"dose: 150.0 mg/kg/injection, schedule: Q04DX003 (ip), vehicle: saline",151 % of control
same,T/C,[2],101 % of control
same,T/C,"dose: 256.0 mg/kg/injection, schedule: Q01DX009 (oral), vehicle: saline",109 % of control
same,T/C,"dose: 256.0 mg/kg/injection, schedule: Q04DX003 (oral), vehicle: saline",171 % of control
same,T/C,"dose: 300.0 mg/kg/injection, schedule: Q01DX001 (oral), vehicle: saline",115 % of control
same,T/C,"dose: 300.0 mg/kg/injection, schedule: Q04DX003 (ip), vehicle: saline",239 % of control
same,T/C,"dose: 512.0 mg/kg/injection, schedule: Q01DX001 (sc), vehicle: saline",153 % of control
same,T/C,"dose: 512.0 mg/kg/injection, schedule: Q04DX003 (oral), vehicle: saline",206 % of control
same,T/C,"dose: 600.0 mg/kg/injection, schedule: Q01DX001 (ip), vehicle: saline",172 % of control
same,T/C,"dose: 600.0 mg/kg/injection, schedule: Q04DX003 (ip), vehicle: saline",259 % of control
same,T/C,"dose: 1024.0 mg/kg/injection, schedule: Q01DX001 (ip), vehicle: saline",161 % of control
same,T/C,"dose: 1024.0 mg/kg/injection, schedule: Q01DX001 (sc), vehicle: saline",239 % of control
same,T/C,"dose: 1024.0 mg/kg/injection, schedule: Q04DX003 (ip), vehicle: saline",286 % of control
same,T/C,"dose: 1024.0 mg/kg/injection, schedule: Q04DX003 (oral), vehicle: saline",122 % of control
same,T/C,"dose: 1024.0 mg/kg/injection, schedule: Q08DX002 (ip), vehicle: saline",250 % of control
same,T/C,"dose: 1200.0 mg/kg/injection, schedule: Q01DX001 (ip), vehicle: saline",183 % of control
OCC(CO)(CO)CO,T/C,"dose: 50.0 mg/kg/injection, schedule: Q01DX009 (ip), vehicle: Klucel (hydroxypropylcellulose) (HPC)",93 % of control
same,T/C,"dose: 100.0 mg/kg/injection, schedule: Q01DX009 (ip), vehicle: Klucel (hydroxypropylcellulose) (HPC)",93 % of control
same,T/C,"dose: 200.0 mg/kg/injection, schedule: Q01DX009 (ip), vehicle: Klucel (hydroxypropylcellulose) (HPC)",96 % of control
CC(C)(C)N1CCCC1,T/C,"dose: 100.0 mg/kg/injection, schedule: Q04DX003 (ip), vehicle: acetone",96 % of control
FC(F)(F)c1cccc(NC2=NCCS2)c1,T/C,"dose: 12.5 mg/kg/injection, schedule: Q01DX001 (ip), vehicle: saline with Tween-80",106 % of control
same,T/C,"dose: 25.0 mg/kg/injection, schedule: Q01DX001 (ip), vehicle: saline with Tween-80",110 % of control
same,T/C,"dose: 50.0 mg/kg/injection, schedule: Q01DX001 (ip), vehicle: saline with Tween-80",101 % of control
same,T/C,"dose: 100.0 mg/kg/injection, schedule: Q01DX001 (ip), vehicle: saline with Tween-80",110 % of control
same,T/C,"dose: 200.0 mg/kg/injection, schedule: Q01DX001 (ip), vehicle: saline with Tween-80",106 % of control
same,T/C,"dose: 400.0 mg/kg/injection, schedule: Q01DX001 (ip), vehicle: saline with Tween-80",105 % of control
O=C(O)/C=C/c1ccccc1C(=O)O,T/C,[1],103 % of control
same,T/C,[2],101 % of control
same,T/C,"dose: 400.0 mg/kg/injection, schedule: Q01DX009 (ip), vehicle: saline",101 % of control
O=P(N1CCCCCC1)(N1CCCCCC1)N1CCCCCC1.O=[N+]([O-])O.O=[N+]([O-])O.[O]=[U]=[O],T/C,"dose: 6.25 mg/kg/injection, schedule: Q04DX003 (ip), vehicle: Klucel (hydroxypropylcellulose) (HPC)",109 % of control
CC(=O)OC1OC(CO)C(OC(C)=O)C(OC(C)=O)C1OC(C)=O (centres undefined),T/C,"dose: 100.0 mg/kg/injection, schedule: Q01DX009 (ip), vehicle: saline sonified",97 % of control
same,T/C,"dose: 200.0 mg/kg/injection, schedule: Q01DX009 (ip), vehicle: saline sonified",97 % of control
same,T/C,"dose: 400.0 mg/kg/injection, schedule: Q01DX009 (ip), vehicle: saline sonified",98 % of control
COc1ccccc1C1(O)c2ccccc2Sc2cccc(OC)c21 (centres undefined),T/C,"dose: 100.0 mg/kg/injection, schedule: Q01DX009 (ip), vehicle: saline with Tween-80",86 % of control
same,T/C,"dose: 200.0 mg/kg/injection, schedule: Q01DX009 (ip), vehicle: saline with Tween-80",89 % of control
same,T/C,"dose: 400.0 mg/kg/injection, schedule: Q01DX009 (ip), vehicle: saline with Tween-80",94 % of control
